Assay results: ChEMBL document CHEMBL1201862, “PubChem BioAssay data set” (2004)
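Tested at 5 concentrations; 48 h exposure; 96-well plates; endpoints linearly interpolated, else capped at highest concentration. Here, GI50 denotes the concentration required for 50% inhibition of growth.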 The source made the active and inactive calls. Cut-off read from the data, not from the text of the source: active = GI50 up to about 1.1 µM and inactive = higher.

What was measured:
Test in all cases: DTP human tumour cell line panel, 48 h
DU-145 = system: DU-145
IGROV-1 = system: IGROV-1
LOX IMVI = system: LOX IMVI
EKVX = system: EKVX
Hs-578T = system: Hs-578T
NCI/ADR-RES = system: NCI/ADR-RES
A498 = system: A498
M14 = system: M14
NCI-H522 = system: NCI-H522
UACC-62 = system: UACC-62
HOP-92 = system: HOP-92
RXF 393 = system: RXF 393
SF-539 = system: SF-539
RPMI-8226 = system: RPMI-8226
UO-31 = system: UO-31
OVCAR-5 = system: OVCAR-5
CAKI-1 = system: CAKI-1
SK-MEL-2 = system: SK-MEL-2
SK-MEL-5 = system: SK-MEL-5
NCI-H226 = system: NCI-H226
SF-295 = system: SF-295
PC-3 = system: PC-3
ACHN = system: ACHN
T47D = system: T47D
BT-549 = system: BT-549
OVCAR-3 = system: OVCAR-3
HCT-116 = system: HCT-116
SW-620 = system: SW-620
MCF7 = system: MCF7
COLO 205 = system: COLO 205
KM12 = system: KM12
HL-60 = system: HL-60
SK-MEL-28 = system: SK-MEL-28
HT-29 = system: HT-29
SF-268 = system: SF-268
SR = system: SR
Malme-3M = system: Malme-3M
MDA-MB-435 = system: MDA-MB-435
OVCAR-8 = system: OVCAR-8
TK-10 = system: TK-10
A549 = system: A549
SK-OV-3 = system: SK-OV-3
OVCAR-4 = system: OVCAR-4
NCI-H460 = system: NCI-H460
SNB-19 = system: SNB-19
MOLT-4 = system: MOLT-4
NCI-H23 = system: NCI-H23
MDA-MB-231 = system: MDA-MB-231
HCT-15 = system: HCT-15
786-0 = system: 786-0
U-251 = system: U-251
CCRF-CEM = system: CCRF-CEM
UACC-257 = system: UACC-257
SN12C = system: SN12C
HCC 2998 = system: HCC 2998
HOP-62 = system: HOP-62
K562 = system: K562
SNB-75 = system: SNB-75
MDA-N = system: MDA-N

For `COC1=CC(=O)O/C1=C(\OC)C1OC1c1ccccc1` (stereo unspecified), the GI50 (DU-145) was > 100 µM (inactive), the GI50 (IGROV-1) was > 100 µM (inactive) and the GI50 (LOX IMVI) was > 100 µM (inactive). For the same compound, the GI50 (EKVX) was > 100 µM (inactive), the GI50 (Hs-578T) was > 100 µM (inactive) and the GI50 (NCI/ADR-RES) was > 100 µM (inactive). For the same compound, the GI50 (A498) was > 100 µM (inactive), the GI50 (M14) was > 100 µM (inactive) and the GI50 (NCI-H522) was > 100 µM (inactive). For the same compound, the GI50 (UACC-62) was > 100 µM (inactive), the GI50 (HOP-92) was > 100 µM (inactive) and the GI50 (RXF 393) was > 100 µM (inactive). The GI50 (SF-539) was > 100 µM (inactive), the GI50 (RPMI-8226) was > 100 µM (inactive) and the GI50 (UO-31) was > 100 µM (inactive). The GI50 (OVCAR-5) was > 100 µM (inactive), the GI50 (CAKI-1) was > 100 µM (inactive) and the GI50 (SK-MEL-2) was > 100 µM (inactive). The GI50 (SK-MEL-5) was > 100 µM (inactive), the GI50 (NCI-H226) was > 100 µM (inactive) and the GI50 (SF-295) was > 100 µM (inactive). The GI50 (PC-3) was > 100 µM (inactive), the GI50 (ACHN) was > 100 µM (inactive) and the GI50 (T47D) was 76 µM (inactive). For the same compound, the GI50 (BT-549) was > 100 µM (inactive), the GI50 (OVCAR-3) was > 100 µM (inactive) and the GI50 (HCT-116) was > 100 µM (inactive). The GI50 (SW-620) was > 100 µM (inactive), the GI50 (MCF7) was > 100 µM (inactive) and the GI50 (COLO 205) was > 100 µM (inactive). The GI50 (KM12) was > 100 µM (inactive), the GI50 (HL-60) was 85.7 µM (inactive) and the GI50 (SK-MEL-28) was > 100 µM (inactive). The GI50 (HT-29) was > 100 µM (inactive), the GI50 (SF-268) was > 100 µM (inactive) and the GI50 (SR) was 13 µM (inactive). For the same compound, the GI50 (Malme-3M) was > 100 µM (inactive), the GI50 (MDA-MB-435) was > 100 µM (inactive) and the GI50 (OVCAR-8) was > 100 µM (inactive). The GI50 (TK-10) was > 100 µM (inactive), the GI50 (A549) was > 100 µM (inactive) and the GI50 (SK-OV-3) was > 100 µM (inactive). The GI50 (OVCAR-4) was > 100 µM (inactive), the GI50 (NCI-H460) was > 100 µM (inactive) and the GI50 (SNB-19) was > 100 µM (inactive). The GI50 (MOLT-4) was 53.7 µM (inactive), the GI50 (NCI-H23) was > 100 µM (inactive) and the GI50 (MDA-MB-231) was 74.3 µM (inactive). For the same compound, the GI50 (HCT-15) was over 100 µM, the GI50 (786-0) was > 100 µM (inactive) and the GI50 (U-251) was > 100 µM (inactive). For the same compound, the GI50 (CCRF-CEM) was 35.2 µM (inactive), the GI50 (UACC-257) was > 100 µM (inactive) and the GI50 (SN12C) was > 100 µM (inactive). For the same compound, the GI50 (HCC 2998) was > 100 µM (inactive) and the GI50 (HOP-62) was > 100 µM (inactive).
In the case of `S=C1/C(=N/c2ccccc2)N(C2CCCCC2)/C(=N\C2CCCCC2)N1c1ccccc1`, the GI50 (DU-145) is reported as > 100 µM (inactive), the GI50 (IGROV-1) is reported as 87.5 µM (inactive) and the GI50 (K562) is reported as > 100 µM (inactive). For the same compound, the GI50 (LOX IMVI) was > 100 µM (inactive), the GI50 (EKVX) was > 100 µM (inactive) and the GI50 (Hs-578T) was > 100 µM (inactive). For the same compound, the GI50 (NCI/ADR-RES) was > 100 µM (inactive), the GI50 (A498) was > 100 µM (inactive) and the GI50 (NCI-H522) was 6.73 µM (inactive). The GI50 (UACC-62) was 76.2 µM (inactive), the GI50 (HOP-92) was > 100 µM (inactive) and the GI50 (RXF 393) was > 100 µM (inactive). For the same compound, the GI50 (SF-539) was 1.18 µM (inactive), the GI50 (RPMI-8226) was > 100 µM (inactive) and the GI50 (UO-31) was > 100 µM (inactive). For the same compound, the GI50 (OVCAR-5) was > 100 µM (inactive), the GI50 (CAKI-1) was > 100 µM (inactive) and the GI50 (SK-MEL-2) was > 100 µM (inactive). The GI50 (SK-MEL-5) was > 100 µM (inactive), the GI50 (NCI-H226) was > 100 µM (inactive) and the GI50 (SF-295) was 36 µM (inactive). The GI50 (PC-3) was 63.8 µM (inactive), the GI50 (ACHN) was > 100 µM (inactive) and the GI50 (SNB-75) was > 100 µM (inactive). The GI50 (T47D) was 82.6 µM (inactive), the GI50 (HCT-116) was 68.9 µM (inactive) and the GI50 (SW-620) was > 100 µM (inactive). The GI50 (COLO 205) was 47.6 µM (inactive), the GI50 (KM12) was 42.7 µM (inactive) and the GI50 (MDA-N) was > 100 µM (inactive). The GI50 (HL-60) was > 100 µM (inactive), the GI50 (SK-MEL-28) was > 100 µM (inactive) and the GI50 (HT-29) was 78.5 µM (inactive). For the same compound, the GI50 (SF-268) was > 100 µM (inactive), the GI50 (SR) was > 100 µM (inactive) and the GI50 (Malme-3M) was > 100 µM (inactive). The GI50 (MDA-MB-435) was > 100 µM (inactive), the GI50 (OVCAR-8) was > 100 µM (inactive) and the GI50 (TK-10) was > 100 µM (inactive). For the same compound, the GI50 (A549) was 60 µM (inactive), the GI50 (SK-OV-3) was > 100 µM (inactive) and the GI50 (OVCAR-4) was > 100 µM (inactive). For the same compound, the GI50 (NCI-H460) was 38 µM (inactive), the GI50 (SNB-19) was 47.2 µM (inactive) and the GI50 (MOLT-4) was > 100 µM (inactive). The GI50 (NCI-H23) was > 100 µM (inactive), the GI50 (MDA-MB-231) was > 100 µM (inactive) and the GI50 (HCT-15) was over 100 µM. The GI50 (786-0) was 75.7 µM (inactive), the GI50 (U-251) was 32.2 µM (inactive) and the GI50 (CCRF-CEM) was > 100 µM (inactive). For the same compound, the GI50 (UACC-257) was > 100 µM (inactive), the GI50 (SN12C) was 47.8 µM (inactive) and the GI50 (HCC 2998) was 86.5 µM (inactive). For the same compound, the GI50 (HOP-62) was 51.8 µM (inactive).
